Measurements reported in ChEMBL document CHEMBL1201862, “PubChem BioAssay data set” (2004).
The source made the active and inactive calls.

Assays:
[1] = target: E3 ubiquitin-protein ligase Mdm2 (Homo sapiens, UniProt Q00987); experiment: enhancers of MDM2-luciferase reporter signal, concentration-effect titration, project on inhibitors of MDM2 ubiquitin ligase, cellular assay, luminescent readout, 384-well plate format (AID 1394); assay type: functional;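 note: MDM2 E3 inhibitors raise luminescence so EC50 is for signal enhancement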
[2] = cytotoxicity toward DRD oncogenic fibroblasts, dose response, cell-based, non-viral oncogenic, luminescence (AID 1934); assay type: functional; conditions: Homo sapiens
[3] = A549 cell cytotoxicity, dose response, cytotoxicity control, plate reader, cherry-pick, antagonist series (AID 743412); assay type: functional, cell-based
BJ [4] = experiment: cytotoxicity toward BJ-TERT fibroblasts, dose response, cell-based, RAS-independent, luminescence (AID 1933); assay type: functional; conditions: Homo sapiens
Paired box protein Pax-8 = Paired box protein Pax-8 (Homo sapiens, UniProt Q06710); experiment: inhibitors of PAX8-driven TPO luciferase reporter, dose response, RMG-I cells, cherry-pick (AID 687027); assay type: functional, cell-based;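 note: luciferase reporter driven by Pax8 target thyroperoxidase promoter measured by SteadyGlo luminescence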
INS1 = experiment: beta cell apoptosis inhibitors, cytokine rescue, dose response, luminescence, retest (AID 449756); assay type: functional, cell-based; conditions: Rattus norvegicus;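 note: cell death triggered by IL-1 beta plus TNF-alpha plus IFN-gamma mixture; protective hits raise ATP signal compared with cytokine alone wells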
[5] = inhibitors of clade B AD8 Env fusion, dose response, cell-based, cherry-pick (AID 652062); assay type: functional;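 note: luciferase signal from cell-cell fusion driven by HIV-1 clade B AD8 Env; potency is for inhibitors of fusion seen as a drop in luminescence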
[6] = Jurkat T cell cytotoxicity, dose response, cytotoxicity control for P. falciparum gametocyte viability project, luminescence (AID 1117277); assay type: functional, cell-based;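 note: potency reflects loss of cellular ATP meaning fewer viable cells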
[7] = target: Heat shock protein HSP 90-alpha (Homo sapiens, UniProt P07900); assay type: functional, organism-based
[8] = CEM21 lymphoblast cell cytotoxicity, dose response, cytotoxicity control for viral fusion inhibitor project, CellTiter-Glo luminescence, cherry-picked (AID 652042); assay type: functional, cell-based;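 note: potency for signal decrease meaning cytotoxicity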
[9] = LGR2 antagonists, dose response, cell-based, HEK293, CRE-luciferase reporter, cherry pick, set 2 (AID 743343); assay type: functional;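 note: transfected cells were stimulated with diluted bursicon conditioned medium after compound addition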
[10] = HEK293 cell cytotoxicity, dose response, cytotoxicity control, plate reader, cherry-picked samples (AID 743446); assay type: functional, cell-based
BJ [11] = experiment: cells; assay type: functional, cell-based; conditions: Homo sapiens
[12] = MC4R antagonists, dose response, counter-screen for LGR2 antagonist project, cell-based, plate reader, cherry pick (AID 743444); assay type: functional;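 note: transfected HEK 293 cells stimulated with alpha-MSH peptide; potency of inhibitors of the alpha-MSH evoked signal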
[13] = ZM109 Env clade C HIV-1 fusion inhibitors, dose response, HeLa effector, CEM target cells, luciferase, cherry-pick (AID 652058); assay type: functional, cell-based
BJ [14] = experiment: cytotoxicity toward BJ-TERT-LT-ST fibroblasts, dose response, cell-based, RAS-independent, luminescence (AID 1935); assay type: functional; conditions: Homo sapiens;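 note: BJ fibroblasts immortalized with TERT plus LT and ST oncogenes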
[15] = off-target signal loss in HeLa-CEM21 co-culture – HeLa F-luc CTL cells, cherry-picked, counter-screen for HIV-1 Env fusion inhibitor project, dose response (AID 652040); assay type: functional, cell-based;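 note: potency for signal decrease marking cytotoxic or nonspecific inhibition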
[16] = inhibitors of HIV Env-driven cell fusion, dose response, cherry-pick (AID 652057); assay type: functional, cell-based
[17] = P. falciparum late gametocyte killing, dose response, luminescence (AID 1117278); assay type: functional, cell-based;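 note: gametocytes exposed to compound for 24 hours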
[18] = non-specific cell cytotoxicity, dose response, cytotoxicity control for PAX8 inhibitor project, plate reader, dry powder samples (AID 743021); assay type: functional, cell-based
[19] = HepG2 cell cytotoxicity, dose response, cytotoxicity control, plate reader, cherry-pick, antagonist series (AID 743416); assay type: functional, cell-based
Prothrombin = Prothrombin (Homo sapiens, UniProt P00734); experiment: Thrombin 1536 HTS Dose Response Confirmation. [Related pubchem assays: 1046 (Thrombin 1536 HTS; hits were confirmed in this assay)]; assay type: functional
[20] = cytotoxicity in HPDE-C7 cells, cell-based, fluorescence, HTS (AID 430); assay type: functional; conditions: Homo sapiens
[21] = target: T1, Replicative DNA helicase DnaB (Mycobacterium tuberculosis, UniProt P9WMR3); experiment: DnaB intein splicing inhibitors, dose response, biochemical, cell-free fluorescence (AID 449749); assay type: functional
T1 sequence (P9WMR3 whole entry): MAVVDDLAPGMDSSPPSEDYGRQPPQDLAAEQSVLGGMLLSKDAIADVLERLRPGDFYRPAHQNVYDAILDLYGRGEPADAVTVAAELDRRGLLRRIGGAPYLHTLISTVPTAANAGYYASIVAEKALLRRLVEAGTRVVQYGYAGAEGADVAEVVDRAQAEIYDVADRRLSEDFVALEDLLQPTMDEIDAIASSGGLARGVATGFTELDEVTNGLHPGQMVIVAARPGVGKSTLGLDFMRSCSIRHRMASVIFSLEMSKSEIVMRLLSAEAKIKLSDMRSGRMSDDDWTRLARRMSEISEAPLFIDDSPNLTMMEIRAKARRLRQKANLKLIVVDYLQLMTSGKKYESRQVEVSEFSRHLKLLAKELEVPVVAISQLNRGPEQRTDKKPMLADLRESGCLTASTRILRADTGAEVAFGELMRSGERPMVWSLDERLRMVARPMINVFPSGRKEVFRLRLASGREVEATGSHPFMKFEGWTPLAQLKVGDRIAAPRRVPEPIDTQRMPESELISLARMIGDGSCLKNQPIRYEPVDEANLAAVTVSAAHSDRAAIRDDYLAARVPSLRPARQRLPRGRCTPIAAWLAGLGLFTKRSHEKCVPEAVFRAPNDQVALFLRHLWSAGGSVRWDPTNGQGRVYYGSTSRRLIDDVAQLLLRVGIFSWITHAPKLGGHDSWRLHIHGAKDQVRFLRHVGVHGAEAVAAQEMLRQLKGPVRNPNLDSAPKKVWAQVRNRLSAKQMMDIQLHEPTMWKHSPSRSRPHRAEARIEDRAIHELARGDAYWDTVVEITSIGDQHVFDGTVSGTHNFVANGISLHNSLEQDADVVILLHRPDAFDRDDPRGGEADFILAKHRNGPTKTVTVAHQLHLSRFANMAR

Vero = Vero cell cytotoxicity, cytotoxicity control for flavivirus capping enzyme inhibitors (AID 588742); assay type: functional; conditions: Chlorocebus sabaeus
Protein RecA = target: T2, Protein RecA (Mycobacterium tuberculosis, UniProt P9WHJ3); experiment: Fluorescence Cell-Free Homogeneous Dose Retest to Identify Inhibitors of RecA-Intein Splicing Activity. [Related pubchem assays (depositor defined):AID2097, AID2223, AID489010, AID492950]; assay type: functional
T2 sequence (P9WHJ3 whole entry): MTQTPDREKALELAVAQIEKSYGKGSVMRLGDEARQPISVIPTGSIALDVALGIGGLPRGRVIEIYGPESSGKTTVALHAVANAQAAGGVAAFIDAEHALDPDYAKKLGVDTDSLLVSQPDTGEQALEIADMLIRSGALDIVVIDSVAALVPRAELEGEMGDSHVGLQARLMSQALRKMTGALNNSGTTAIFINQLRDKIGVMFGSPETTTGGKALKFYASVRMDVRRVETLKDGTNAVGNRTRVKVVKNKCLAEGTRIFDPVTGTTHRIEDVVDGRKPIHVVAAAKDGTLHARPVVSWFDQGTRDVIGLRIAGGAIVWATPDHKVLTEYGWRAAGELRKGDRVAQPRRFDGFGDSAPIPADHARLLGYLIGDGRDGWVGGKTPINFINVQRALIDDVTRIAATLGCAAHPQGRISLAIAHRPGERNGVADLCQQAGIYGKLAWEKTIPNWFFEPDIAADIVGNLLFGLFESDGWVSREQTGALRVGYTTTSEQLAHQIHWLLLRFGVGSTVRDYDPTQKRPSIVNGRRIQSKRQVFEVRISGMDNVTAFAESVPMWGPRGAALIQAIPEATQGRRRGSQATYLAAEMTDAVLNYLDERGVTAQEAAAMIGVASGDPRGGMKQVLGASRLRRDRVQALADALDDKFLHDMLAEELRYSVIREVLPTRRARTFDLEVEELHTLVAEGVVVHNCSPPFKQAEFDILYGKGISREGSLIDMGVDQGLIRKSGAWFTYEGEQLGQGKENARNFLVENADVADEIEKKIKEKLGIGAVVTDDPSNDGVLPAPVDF

[22] = cytotoxicity in KRAS-transformed pancreatic duct cells, primary screen, cell-based, fluorescence, HTS (AID 431); assay type: functional; conditions: Homo sapiens;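 note: cell line used: HPDE-C7K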

E3 ubiquitin-protein ligase Mdm2, sequence (Q00987 whole entry): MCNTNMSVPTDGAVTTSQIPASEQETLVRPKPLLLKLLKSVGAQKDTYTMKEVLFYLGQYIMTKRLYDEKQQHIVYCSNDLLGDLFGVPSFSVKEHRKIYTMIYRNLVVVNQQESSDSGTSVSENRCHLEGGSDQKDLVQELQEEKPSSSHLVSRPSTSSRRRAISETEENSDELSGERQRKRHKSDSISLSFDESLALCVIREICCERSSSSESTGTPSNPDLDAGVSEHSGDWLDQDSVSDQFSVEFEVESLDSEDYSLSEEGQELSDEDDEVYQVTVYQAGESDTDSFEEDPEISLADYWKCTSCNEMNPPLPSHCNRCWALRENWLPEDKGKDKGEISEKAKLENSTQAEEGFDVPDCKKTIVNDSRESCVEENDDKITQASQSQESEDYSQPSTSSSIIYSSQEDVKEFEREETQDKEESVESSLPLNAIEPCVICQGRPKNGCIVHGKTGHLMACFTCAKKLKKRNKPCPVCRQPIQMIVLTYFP
Paired box protein Pax-8, sequence (Q06710 whole entry): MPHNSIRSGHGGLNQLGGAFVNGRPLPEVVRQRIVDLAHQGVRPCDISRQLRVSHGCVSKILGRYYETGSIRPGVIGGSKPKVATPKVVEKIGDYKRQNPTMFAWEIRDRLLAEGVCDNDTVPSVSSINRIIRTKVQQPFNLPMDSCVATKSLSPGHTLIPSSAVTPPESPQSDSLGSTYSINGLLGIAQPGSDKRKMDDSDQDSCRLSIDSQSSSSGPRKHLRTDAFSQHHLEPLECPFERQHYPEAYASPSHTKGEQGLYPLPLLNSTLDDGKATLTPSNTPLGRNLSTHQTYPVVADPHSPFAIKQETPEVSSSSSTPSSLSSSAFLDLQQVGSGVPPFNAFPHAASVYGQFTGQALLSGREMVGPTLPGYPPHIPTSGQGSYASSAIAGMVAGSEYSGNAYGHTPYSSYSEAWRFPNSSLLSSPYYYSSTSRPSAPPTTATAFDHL

COc1ccc(C)cc1NC(=O)C(OC(=O)CNC(=O)c1cc(C)cc(C)c1)c1ccccc1 (stereo unspecified)
EC50 [1]: 7.51 µM (not active)

Cc1nn(-c2nc3ccccc3[nH]2)c(=O)c2ccccc12
EC50 [2]: 1.01 µM (active) | AC50 [3]: 2.04 µM (active) | EC50 (BJ [4]): 1.06 µM (active) | AC50 (Paired box protein Pax-8): 1.54 µM (active) | AC50 (INS1): 1.3 µM (active) | AC50 [5]: 1.46 µM (active) | IC50 [6]: 2.41 µM (active) | AC50 [7]: 4.97 µM (active) | AC50 [8]: 2.08 µM (active) | AC50 [9]: 0.352 µM (active) | AC50 [10]: 2.33 µM (active) | EC50 (BJ [11]): 1.04 µM (active) | AC50 [12]: 0.352 µM (active) | AC50 [13]: 5.84 µM (active) | EC50 (BJ [14]): 3.5 µM (active) | AC50 [15]: 1.36 µM (active) | AC50 [16]: 0.534 µM (active) | IC50 [17]: 8.6 µM (active) | AC50 [18]: 1.72 µM (active) | AC50 [19]: 14.8 µM (active)

c1ccc2c(-c3nnc4n3CCCCC4)cc(-c3ccncc3)nc2c1
IC50 (Prothrombin): > 50 µM (not active)

COc1ccc(N2C(S)=NC(=Nc3ccccc3)C23CCCCC3)cc1
IC50 (Prothrombin): > 50 µM (not active)

CCCc1n[nH]c2c1C(c1ccc(Br)s1)C(C#N)=C(N)O2 (stereo unspecified)
EC50 [20]: 5.48 µM (active) | AC50 [21]: 8.54 µM (active) | CC50 (Vero): 39.9 µM (active) | EC50 (Protein RecA): 7.21 µM (active) | EC50 [22]: 7 µM (active)

COc1cc2nc(CN(C)Cc3ccc(F)cc3)nc(O)c2cc1OC
IC50 [6]: > 83.2 µM (inactive) | IC50 [17]: > 109 µM (inactive)

CCCN(CCC)CCNc1c(NC2CCN(C(=O)OCC)CC2)c(=O)c1=O
EC50 [1]: 16.1 µM (not active)
